Legend:
[1] = test system: SARS-COV-2 variants (alpha, beta, gamma, delta, BA.1, BA.2) and USA-WA1/2020; assay type: cell-based; settings: 10 μM, 48 hours, A549-ACE2+ cells
[2] = test system: SARS-COV-2 variants (alpha, beta, gamma, delta, BA.1, BA.2) and USA-WA1/2020; assay type: cell-based; settings: 10 μM, 48 hours, A549-ACE2+ cells; remark: listed apart in the source

**Q.** How did the “percentage of viral nucleocapsid-positive cells” value [1] turn out when CC(C)CC(=O)c1c(Nc2ccc(C(=O)O)cc2Cl)[nH]c2c(Cl)ccc([N+](=O)[O-])c2c1=O [Compound 1, 3-chloro-4-((8-chloro-3-(3-methylbutanoyl)-5-nitro-4-oxo-1,4-dihydroquinolin-2-yl)amino)benzoic acid] was run?
**A.** reduces

**Q.** What about the “viral mRNA levels” value [2] of the same compound?
**A.** reduces
